According to patent US4559323A, “A41030 Antibiotics” (Eli Lilly and Company, priority 1984, dated 1985):
≈ marks a conversion by molar mass, not a printed value. Like-named read-outs stand apart in the source and are kept apart here.

Key:
[1] = Electrometric titration (pKa); assay type: physicochemical; conditions: electrometric titration in 66% dimethylformamide in water
Solubility in solvents = assay type: physicochemical; conditions: solvents as named
Description: The seven antibiotic factors are recovered from the fermentation and are obtained as a mixture, the A41030 complex. It will be recognized that the ratio of the factors in the A41030 complex will vary, depending upon the fermentation conditions used. The individual factors […], and G are separated and isolated as individual compounds, as hereinafter described.

Hemophilus influenzae = assay: Agar-dilution MIC; assay type: cell-based; conditions: 24 hours
[2] = system: Streptococcus sp. (Group D); assay: Agar-dilution MIC; assay type: cell-based; conditions: 24 hours
Description: (§1) The agar-dilution procedure described by the International Collaborative study (ICS) group was used to determine the minimum inhibitory concentrations (MIC's).

Bacteroides fragilis = assay: Agar-dilution MIC (anaerobes); assay type: cell-based
Description: as §1

Bacteroides corrodens [3] = assay: Agar-dilution MIC (anaerobes); assay type: cell-based; conditions: Table 12; 24-hour; B. corrodens 1874
Description: (§2) The A41030 antibiotics, factors A, B, and C, are active against a genus of anaerobic bacteria identified as Bacteroides sp., the 24-hour MIC values being determined by the agar-dilution method, and are set forth in Table 12, which follows.

Bacteroides vulgatis [4] = assay: Agar-dilution MIC (anaerobes); assay type: cell-based; conditions: Table 12; 24-hour; B. vulgatis 1563
Description: as §2

B. thetaiotaomicron = assay type: cell-based
Description: as §1

Clostridium difficile [5] = assay type: cell-based; conditions: Table 16
Description: The A41030 antibiotic factors A, B, C, D, E, F, and G, are also active against a number of strains of Clostridium difficile, as determined by the agar-dilution method.

Clostridium perfringens = assay type: cell-based; conditions: Table 14; Clostridium perfringens 81
Clostridium septicum = assay: Agar-dilution MIC (anaerobes); assay type: cell-based; conditions: Table 14; Clostridium septicum 1128
[6] = system: Peptococcus asaccharolyticus; assay: Agar-dilution MIC (anaerobes); assay type: cell-based; conditions: Table 15
Experimental: (§3) The MIC values were determined by the agar-dilution method, and are recorded in Table 15, which follows.

Peptococcus prevoti = assay: Agar-dilution MIC (anaerobes); assay type: cell-based
[7] = system: Peptostreptococcus anaerobius; assay: Agar-dilution MIC (anaerobes); assay type: cell-based
[8] = system: Peptostreptococcus intermedius; assay: Agar-dilution MIC (anaerobes); assay type: cell-based
Fusobacterium symbiosum = assay: Agar-dilution MIC (anaerobes); assay type: cell-based; conditions: Table 14; Fusobacterium symbiosum 1470
[9] = system: Fusobacterium necrophorum; assay: Agar-dilution MIC (anaerobes); assay type: cell-based; conditions: Table 14; Fusobacterium necrophorum 6054A
Pc. constellatus = assay: Agar-dilution MIC (anaerobes); assay type: cell-based, Peptococcus constellatus; conditions: Table 15; Pc. constellatus 1468
Experimental: as §3

Salmonella typhi = assay: Agar-dilution MIC; assay type: cell-based; conditions: Table 17, 24 hours
S. pyogenes = assay: In vivo oral activity against S. pyogenes in mice
Bacteroides corrodens [10] = assay: Agar-dilution MIC (anaerobes); assay type: cell-based; conditions: Table 14; Bacteroides corrodens 1874
Bacteroides vulgatis [11] = assay: Agar-dilution MIC (anaerobes); assay type: cell-based; conditions: Table 14; Bacteroides vulgatis 1211
Clostridium difficile [12] = assay type: cell-based; conditions: Table 14; Clostridium difficile 2994

## N[C@H]1C(=O)N[C@@H]2Cc3ccc(c(Cl)c3)Oc3cc4cc(c3O)Oc3ccc(cc3Cl)[C@@H](O)[C@@H]3NC(=O)C(NC(=O)[C@@H]4NC(=O)[C@@H](NC2=O)c2cc(O)cc(c2)Oc2cc1ccc2O)c1ccc(O)c(c1)-c1c(O)cc(O)cc1[C@@H](C(=O)O)NC3=O [A41030 factor B]
[1]
  pKa, first titratable group: about 5.6
  pKa, second titratable group: ~7.5
Solubility in solvents
  Solubility: soluble in the same solvents as factor A
Hemophilus influenzae; Table 17, Haemophilus influenzae 251
  MIC: 2 µg/mL (≈ 1.67 µM)
Hemophilus influenzae; Table 17, Haemophilus influenzae Brun
  MIC: 8 µg/mL (≈ 6.67 µM)
Hemophilus influenzae; Table 18, Haemophilus influenzae 76
  MIC: 4 µg/mL (≈ 3.34 µM)
Hemophilus influenzae; Table 18, Haemophilus influenzae 312
  MIC: 4 µg/mL (≈ 3.34 µM)
Hemophilus influenzae; Table 18, Haemophilus influenzae 4842
  MIC: 4 µg/mL (≈ 3.34 µM)
Hemophilus influenzae; Table 18, Haemophilus influenzae 16836
  MIC: 4 µg/mL (≈ 3.34 µM)
Hemophilus influenzae; Table 18, Haemophilus influenzae Bond
  MIC: 4 µg/mL (≈ 3.34 µM)
Hemophilus influenzae; Table 18, Haemophilus influenzae C.L.
  MIC: 8 µg/mL (≈ 6.67 µM)
Hemophilus influenzae; Table 18, Haemophilus influenzae Mx366
  MIC: 4 µg/mL (≈ 3.34 µM)
Hemophilus influenzae; Table 18, Haemophilus influenzae Mx371
  MIC: 4 µg/mL (≈ 3.34 µM)
[2]; Table 17, Streptococcus sp. Group D 9960
  MIC: 1 µg/mL (≈ 0.834 µM)
[2]; Table 17, Streptococcus sp. Group D X66
  MIC: 1 µg/mL (≈ 0.834 µM)
[2]; Table 18, Streptococcus sp. Group D 2041
  MIC: 0.5 µg/mL (≈ 0.417 µM)
[2]; Table 18, Streptococcus sp. Group D 2058
  MIC: 0.5 µg/mL (≈ 0.417 µM)
[2]; Table 18, Streptococcus sp. Group D 8043
  MIC: 0.25 µg/mL (≈ 0.209 µM)
[2]; Table 18, Streptococcus sp. Group D 9901
  MIC: 1 µg/mL (≈ 0.834 µM)
[2]; Table 18, Streptococcus sp. Group D 9960
  MIC: 0.5 µg/mL (≈ 0.417 µM)
[2]; Table 18, Streptococcus sp. Group D 12253F
  MIC: 0.5 µg/mL (≈ 0.417 µM)
[2]; Table 18, Streptococcus sp. Group D Mx161
  MIC: 0.25 µg/mL (≈ 0.209 µM)
[2]; Table 18, Streptococcus sp. Group D X66
  MIC: 0.25 µg/mL (≈ 0.209 µM)
Bacteroides fragilis; Table 12, 24-hour, B. fragilis 2
  MIC: 32 µg/mL (≈ 26.7 µM)
Bacteroides fragilis; Table 12, 24-hour, B. fragilis 9
  MIC: 32 µg/mL (≈ 26.7 µM)
Bacteroides fragilis; Table 12, 24-hour, B. fragilis 103
  MIC: 32 µg/mL (≈ 26.7 µM)
Bacteroides fragilis; Table 12, 24-hour, B. fragilis 104
  MIC: 32 µg/mL (≈ 26.7 µM)
Bacteroides fragilis; Table 12, 24-hour, B. fragilis 106
  MIC: 32 µg/mL (≈ 26.7 µM)
Bacteroides fragilis; Table 12, 24-hour, B. fragilis 107
  MIC: 32 µg/mL (≈ 26.7 µM)
Bacteroides fragilis; Table 12, 24-hour, B. fragilis 108
  MIC: 32 µg/mL (≈ 26.7 µM)
Bacteroides fragilis; Table 12, 24-hour, B. fragilis 110
  MIC: 64 µg/mL (≈ 53.4 µM)
Bacteroides fragilis; Table 12, 24-hour, B. fragilis 111
  MIC: 32 µg/mL (≈ 26.7 µM)
Bacteroides fragilis; Table 12, 24-hour, B. fragilis 112
  MIC: 32 µg/mL (≈ 26.7 µM)
Bacteroides fragilis; Table 12, 24-hour, B. fragilis 113
  MIC: 32 µg/mL (≈ 26.7 µM)
Bacteroides fragilis; Table 12, 24-hour, B. fragilis 1451
  MIC: 64 µg/mL (≈ 53.4 µM)
Bacteroides fragilis; Table 12, 24-hour, B. fragilis 1470
  MIC: 64 µg/mL (≈ 53.4 µM)
Bacteroides fragilis; Table 12, 24-hour, B. fragilis 1877
  MIC: 32 µg/mL (≈ 26.7 µM)
Bacteroides fragilis; Table 12, 24-hour, B. fragilis 9032
  MIC: 32 µg/mL (≈ 26.7 µM)
Bacteroides fragilis; Table 14, Bacteroides fragilis 111
  MIC: 64 µg/mL (≈ 53.4 µM)
Bacteroides fragilis; Table 14, Bacteroides fragilis 1877
  MIC: 32 µg/mL (≈ 26.7 µM)
Bacteroides fragilis; Table 14, Bacteroides fragilis 1936B
  MIC: 32 µg/mL (≈ 26.7 µM)
Bacteroides corrodens [3]
  MIC: 32 µg/mL (≈ 26.7 µM)
Bacteroides vulgatis [4]
  MIC: 32 µg/mL (≈ 26.7 µM)
B. thetaiotaomicron; Table 12, 24-hour, B. thetaiotaomicron 1438
  MIC: 32 µg/mL (≈ 26.7 µM)
B. thetaiotaomicron; Table 12, 24-hour, B. thetaiotaomicron 1900A
  MIC: 128 µg/mL (≈ 107 µM)
B. thetaiotaomicron; Table 14, Bacteroides thetalotaomicron 1438
  MIC: 32 µg/mL (≈ 26.7 µM)
Clostridium difficile [5]; C. difficile 78
  MIC: 0.5 µg/mL (≈ 0.417 µM)
Clostridium difficile [5]; C. difficile 107B
  MIC: 0.5 µg/mL (≈ 0.417 µM)
Clostridium difficile [5]; C. difficile 111F
  MIC: 1.0 µg/mL (≈ 0.834 µM)
Clostridium difficile [5]; C. difficile 1153
  MIC: 1.0 µg/mL (≈ 0.834 µM)
Clostridium difficile [5]; C. difficile 2634
  MIC: 1.0 µg/mL (≈ 0.834 µM)
Clostridium difficile [5]; C. difficile 3424-5B
  MIC: 1.0 µg/mL (≈ 0.834 µM)
Clostridium difficile [5]; C. difficile 3816
  MIC: 1.0 µg/mL (≈ 0.834 µM)
Clostridium difficile [5]; C. difficile 3950
  MIC: 1.0 µg/mL (≈ 0.834 µM)
Clostridium difficile [5]; C. difficile 6890
  MIC: 1.0 µg/mL (≈ 0.834 µM)
Clostridium difficile [5]; C. difficile 8484
  MIC: 1.0 µg/mL (≈ 0.834 µM)
Clostridium difficile [5]; C. difficile A-194
  MIC: 1.0 µg/mL (≈ 0.834 µM)
Clostridium difficile [5]; C. difficile A-195
  MIC: 1.0 µg/mL (≈ 0.834 µM)
Clostridium difficile [5]; C. difficile A-196
  MIC: 1.0 µg/mL (≈ 0.834 µM)
Clostridium difficile [5]; C. difficile A-279
  MIC: 1.0 µg/mL (≈ 0.834 µM)
Clostridium difficile [5]; C. difficile A-280
  MIC: 0.5 µg/mL (≈ 0.417 µM)
Clostridium difficile [5]; C. difficile A-281
  MIC: 1.0 µg/mL (≈ 0.834 µM)
Clostridium difficile [5]; C. difficile WAL-2112
  MIC: 1.0 µg/mL (≈ 0.834 µM)
Clostridium difficile [5]; C. difficile WAL-3657
  MIC: 1.0 µg/mL (≈ 0.834 µM)
Clostridium difficile [5]; C. difficile WAL-4268
  MIC: 0.5 µg/mL (≈ 0.417 µM)
Clostridium perfringens
  MIC: 0.5 µg/mL (≈ 0.417 µM)
Clostridium septicum
  MIC: 4 µg/mL (≈ 3.34 µM)
[6]; Pc. asaccharolyticus 1302
  MIC: 0.125 µg/mL (≈ 0.104 µM)
[6]; Pc. asaccharolyticus 1344
  MIC: 0.5 µg/mL (≈ 0.417 µM)
Peptococcus prevoti; Table 14, Peptococcus prevoti 1281
  MIC: ≤ 0.25 µg/mL
Peptococcus prevoti; Table 15, Pc. prevoti 1281
  MIC: 0.5 µg/mL (≈ 0.417 µM)
Peptococcus prevoti; Table 15, Pc. prevoti 1293
  MIC: 0.25 µg/mL (≈ 0.209 µM)
Peptococcus prevoti; Table 15, Pc. prevoti 1407
  MIC: 0.5 µg/mL (≈ 0.417 µM)
[7]; Table 14, Peptostreptococcus anaerobius 1428
  MIC: ≤ 0.25 µg/mL
[7]; Table 15, Ps. anaerobius 8
  MIC: 0.25 µg/mL (≈ 0.209 µM)
[7]; Table 15, Ps. anaerobius 52
  MIC: 0.5 µg/mL (≈ 0.417 µM)
[7]; Table 15, Ps. anaerobius 59
  MIC: 0.25 µg/mL (≈ 0.209 µM)
[7]; Table 15, Ps. anaerobius 1418
  MIC: 0.06 µg/mL (≈ 0.05 µM)
[7]; Table 15, Ps. anaerobius 1428
  MIC: 0.25 µg/mL (≈ 0.209 µM)
[7]; Table 15, Ps. anaerobius 1451
  MIC: 0.25 µg/mL (≈ 0.209 µM)
[7]; Table 15, Ps. anaerobius 1477
  MIC: 0.125 µg/mL (≈ 0.104 µM)
[8]; Table 14, Peptostreptococcus intermedius 1264
  MIC: 0.5 µg/mL (≈ 0.417 µM)
[8]; Table 15, Ps. intermedius 1264
  MIC: ≤ 0.03 µg/mL
[8]; Table 15, Ps. intermedius 1524
  MIC: 0.25 µg/mL (≈ 0.209 µM)
[8]; Table 15, Ps. intermedius 1624
  MIC: 0.5 µg/mL (≈ 0.417 µM)
Fusobacterium symbiosum
  MIC: 1.0 µg/mL (≈ 0.834 µM)
[9]
  MIC: 8 µg/mL (≈ 6.67 µM)
Pc. constellatus
  MIC: 0.5 µg/mL (≈ 0.417 µM)
Salmonella typhi; Salmonella typhi 1335
  MIC: > 128 µg/mL
Salmonella typhi; Salmonella typhi X514
  MIC: > 128 µg/mL
S. pyogenes
  in vivo oral activity: > 300 mg./kg.X2
Bacteroides corrodens [10]
  MIC: 64 µg/mL (≈ 53.4 µM)
Bacteroides vulgatis [11]
  MIC: 32 µg/mL (≈ 26.7 µM)
Clostridium difficile [12]
  MIC: 32 µg/mL (≈ 26.7 µM)
